Target: CXCR4 (Homo sapiens (Human), UniProt P61073)
Experiment: Functional calcium mobilization assay (SDF-1α induced)
Format: cell-based
Settings: CCRF-CEM, read-out: % inhibition at 1 μM
Protocol: Functional modulation of CXCR4 was determined by calcium mobilization assay using leukemic lymphoid CEM cells, which naturally express high levels of CXCR4. Generally, the assay is carried out as follows: Cells are grown in vitro to confluency. On the day of the assay, cells are removed from the incubator, culture medium removed and replaced with a calcium sensitive dye (Calcium3 assay kit; Molecular Devices, Sunnyvale, Calif.). The cells are allowed to dye load for 45-60 min at 37° C. in the cell culture incubator and then allowed to equilibrate to room temperature for no more than 15 min before assay.
Compound plates were generated containing up to 3% dimethyl sulfoxide in media kept at room temperature. Test compounds were added to the cells at a 1:3 dilution, and calcium mobilization was measured using a Flex Station fluorescence imager (Molecular Devices). This first read was used to determine direct agonist activation of the CXCR4 receptor by the test compounds. […] Full dose response curves were generated daily for SDF-1a to calculate IC50 concentrations. The IC50 values are reported. In cases, where one was not determined, a percent inhibition at the 1 μM concentration was extrapolated.
Functional calcium mobilization assay was conducted as described in Example 27.

CXCR4, sequence (P61073 whole entry): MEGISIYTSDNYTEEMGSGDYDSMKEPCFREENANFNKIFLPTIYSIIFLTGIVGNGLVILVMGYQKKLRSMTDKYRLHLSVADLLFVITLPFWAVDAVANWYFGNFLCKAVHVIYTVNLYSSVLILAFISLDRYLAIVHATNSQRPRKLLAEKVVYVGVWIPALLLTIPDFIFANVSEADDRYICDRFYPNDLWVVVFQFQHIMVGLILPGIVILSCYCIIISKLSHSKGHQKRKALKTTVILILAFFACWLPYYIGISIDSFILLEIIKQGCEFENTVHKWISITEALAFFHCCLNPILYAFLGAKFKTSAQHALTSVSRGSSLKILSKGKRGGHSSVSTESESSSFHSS

inhibition at 1 µM | SMILES
0% | NCc1ccc(CN(Cc2nccc3c2[nH]c2ccccc23)[C@H]2CCCc3cccnc32)cc1
0% | N[C@@H](CCCN(Cc1nccc2c3ccccc3n(CC(=O)N3CCOCC3)c12)[C@H]1CCCc2cccnc21)C(=O)O
0% | O=C(NNc1ccccc1)c1ccc(CN(Cc2nccc3c2[nH]c2ccccc23)[C@H]2CCCc3cccnc32)cc1
0% | NCCCN(Cc1nccc2c1[nH]c1ccccc12)C1CCCc2cccnc21 (centres unmarked)
0% | c1cnc(NCCCCN(Cc2nccc3c2[nH]c2ccccc23)[C@H]2CCCc3cccnc32)nc1
6% | c1cnc2c(c1)CCCC2N(CCCNC1=NCCN1)Cc1nccc2c1[nH]c1ccccc12 (centres unmarked)
0% | O=C(Cn1c2ccccc2c2ccnc(CN(Cc3ccc(CNCc4ccccn4)cc3)[C@H]3CCCc4cccnc43)c21)N1CCOCC1
0% | NC1CCN(C(=O)CN(Cc2nccc3c2[nH]c2ccccc23)[C@H]2CCCc3cccnc32)CC1
20% | c1cnc2c(c1)CCCC2N(CCCN1CCOCC1)Cc1nccc2c1[nH]c1ccccc12 (centres unmarked)

More lines, now with the values behind:

SMILES | inhibition at 1 µM
O=C(CN(Cc1nccc2c1[nH]c1ccccc12)[C@H]1CCCc2cccnc21)NC1CCNCC1 | 0%
OCCCCN(Cc1nccc2c1[nH]c1ccccc12)[C@H]1CCCc2cccnc21 | 0%
CS(=O)(=O)NCCCCN(Cc1nccc2c1[nH]c1ccccc12)[C@H]1CCCc2cccnc21 | 0%
O=C1CNCCN1CCCN(Cc1nccc2c3ccccc3n(CC(=O)N3CCOCC3)c12)[C@H]1CCCc2cccnc21 | 0%
c1cnc2c(c1)CCC[C@@H]2NCc1cc2c(cn1)[nH]c1ccccc12 | 39%
CC(C)(C)OC(=O)[C@@H](N)CCCN(Cc1nccc2c3ccccc3n(CC(=O)N3CCOCC3)c12)[C@H]1CCCc2cccnc21 | 0%
CC(C)CN(CCCCN(Cc1nccc2c1[nH]c1ccccc12)[C@H]1CCCc2cccnc21)CC(C)C | 23%
CCN(CC)CCCCN(Cc1nccc2c1[nH]c1ccccc12)C1CCCc2cccnc21 (centres unmarked) | 4%
NCC#CCN(Cc1nccc2c1[nH]c1ccccc12)[C@H]1CCCc2cccnc21 | 0%
CS(=O)(=O)N1CCN(CCCN(Cc2nccc3c2[nH]c2ccccc23)C2CCCc3cccnc32)CC1 (centres unmarked) | 27%
NCCCCN(C(=O)c1nccc2c1[nH]c1ccccc12)C1CCCc2cccnc21 (centres unmarked) | 0%
O=C1c2ccccc2C(=O)N1CCCn1c2ccccc2c2ccnc(CN[C@H]3CCCc4cccnc43)c21 | 0%
c1cnc2c(c1)CCCC2N(CCNC1=NCCN1)Cc1nccc2c1[nH]c1ccccc12 (centres unmarked) | 0%
c1cnc2c(c1)CCCC2N(CCC1CCNCC1)Cc1nccc2c1[nH]c1ccccc12 (centres unmarked) | 55%

Same assay, conditions: CEM cells, SDF-1α challenge at EC80-EC90; read-out: Ca Flux IC50

IC50 | SMILES
20 nM | COCCn1c2ccccc2c2ccnc(CN(CCCCN)[C@H]3CCCc4cccnc43)c21
1 nM | CC(C)(C)OC(=O)Cn1c2ccccc2c2ccnc(CN(CCCCN)[C@H]3CCCc4cccnc43)c21
1640 nM | CCN(Cc1nccc2c3ccccc3n(CCCN3C(=O)c4ccccc4C3=O)c12)[C@H]1CCCc2cccnc21
168 nM | CCNCCCCN(Cc1nccc2c1[nH]c1ccccc12)C1CCCc2cccnc21 (centres unmarked)
38 nM | CN(C)C(=O)NCCCCN(Cc1nccc2c1[nH]c1ccccc12)C1CCCc2cccnc21 (centres unmarked)
949 nM | CC(C)(C)OC(=O)Cn1c2ccccc2c2cc(CN(CCCCN)[C@H]3CCCc4cccnc43)ncc21
3200 nM | Cn1c(CN(CCCCN)C2CCCc3cccnc32)nnc1-c1ccccc1 (centres unmarked)
331 nM | c1cnc2c(c1)CCC[C@@H]2N(CCCN1CCNCC1)Cc1cc2c(cn1)[nH]c1ccccc12
1260 nM | N[C@H]1CC[C@@H](CN(Cc2nccc3c4ccccc4n(CC(=O)N4CCOCC4)c23)[C@H]2CCCc3cccnc32)CC1
2150 nM | N[C@H]1CC[C@H](CN(Cc2nccc3c4ccccc4n(CC(=O)N4CCOCC4)c23)[C@H]2CCCc3cccnc32)CC1
3600 nM | c1cnc2c(c1)CCC[C@@H]2N(Cc1nccc2c1[nH]c1ccccc12)CC1CCCNC1 (some centres unmarked)
14 nM | c1cnc2c(c1)CCC[C@@H]2N(CCCN1CCNCC1)Cc1nccc2c3ccccc3n(CC3CC3)c12
864 nM | NCCCCN(Cc1cc2c3ccccc3n(CC(=O)O)c2cn1)[C@H]1CCCc2cccnc21
663 nM | NCCCCN(Cc1nccc2c3ccccc3n(CC(=O)N3CCNCC3)c12)[C@H]1CCCc2cccnc21
1050 nM | CN(Cc1nccc2c3ccccc3n(CCCN)c12)[C@H]1CCCc2cccnc21
13 nM | NCCCCN(Cc1nccc2c3ccccc3n(CCC3CCOCC3)c12)[C@H]1CCCc2cccnc21
4 nM | NCCCCN(Cc1nccc2c3ccccc3n(CC3CC3)c12)[C@H]1CCCc2cccnc21
9580 nM | CC(C)(C)OC(=O)[C@@H](N)CCCN(Cc1nccc2c1[nH]c1ccccc12)[C@H]1CCCc2cccnc21
628 nM | CN1CCN(CCCN(Cc2nccc3c4ccccc4n(CC(=O)N4CCOCC4)c23)[C@H]2CCCc3cccnc32)CC1
30 nM | CN1CCN(C(=O)Cn2c3ccccc3c3ccnc(CN(CCCCN)[C@H]4CCCc5cccnc54)c32)CC1 [drawing 725]
10000 nM | CS(=O)(=O)N1CCN(CCN(Cc2nccc3c2[nH]c2ccccc23)C2CCCc3cccnc32)CC1 (centres unmarked)
565 nM | NCCCCN(Cc1nccc2c1[nH]c1cc(F)ccc12)C1CCCc2cccnc21 (centres unmarked)
61 nM | NCCCCN(Cc1nccc2c3ccccc3n(CC(=O)N3CC[S+]([O-])CC3)c12)[C@H]1CCCc2cccnc21
1440 nM | NC(=O)CCCN(Cc1nccc2c1[nH]c1ccccc12)[C@H]1CCCc2cccnc21
1720 nM | CC(=O)NCCCCN(Cc1nccc2c1[nH]c1ccccc12)C1CCCc2cccnc21 (centres unmarked)
949 nM | NC/C=C\CN(Cc1nccc2c1[nH]c1ccccc12)[C@H]1CCCc2cccnc21

Further lines, the compound ahead of its results:

SMILES | IC50
NCCCCN(Cc1nccc2c3ccccc3n(CC(=O)NC3CCOCC3)c12)[C@H]1CCCc2cccnc21 | 21 nM
NCCCCN(Cc1nccc2c3ccccc3n(Cc3ccncc3)c12)[C@H]1CCCc2cccnc21 | 120 nM
NCCCn1c2ccccc2c2ccnc(CN[C@H]3CCCc4cccnc43)c21 | 8890 nM
Cn1c2ccccc2c2ccnc(CN(CCCCN)C3CCCc4cccnc43)c21 (centres unmarked) | 10 nM
NCCCCN(Cc1nccc2c3ccccc3n(CC(=O)NC3CCNCC3)c12)[C@H]1CCCc2cccnc21 | 110 nM
CN(Cc1nccc2c3ccccc3n(CCN3C(=O)c4ccccc4C3=O)c12)[C@H]1CCCc2cccnc21 | 329 nM
NCCCCN(Cc1nccc2c3ccccc3n(CCN3CCOCC3)c12)[C@H]1CCCc2cccnc21 | 4 nM
O=C1CN(CCCN(Cc2nccc3c4ccccc4n(CC(=O)N4CCOCC4)c23)[C@H]2CCCc3cccnc32)CCN1 | 8720 nM
O=C(Cn1c2ccccc2c2ccnc(CN(CCCCNCc3ccncc3)[C@H]3CCCc4cccnc43)c21)N1CCOCC1 | 2830 nM
c1cnc2c(c1)CCC[C@@H]2N(CCCCNCC1CC1)Cc1nccc2c1[nH]c1ccccc12 | 451 nM
c1ccc(Cn2c3ccccc3c3ccnc(CN(CCCN4CCNCC4)[C@H]4CCCc5cccnc54)c32)nc1 | 176 nM
NCCCCN(Cc1nccc2c3ccccc3n(CC(N)=O)c12)[C@H]1CCCc2cccnc21 [drawing 765] | 17 nM
O=C1CNCCN1CCCn1c2ccccc2c2ccnc(CN(CCCN3CCNCC3)[C@H]3CCCc4cccnc43)c21 | 44 nM
CC(c1ccccn1)N(CCCCN)Cc1nccc2c3ccccc3n(CC(=O)N3CCOCC3)c12 (centres unmarked) | 423 nM
NCCCCN(Cc1nccc2c3ccccc3n(CC(=O)O)c12)[C@H]1CCCc2cccnc21 [drawing 709] | 22 nM
NCCCCN(Cc1nccc2c3ccccc3n(CC(=O)N3CCC(N)CC3)c12)[C@H]1CCCc2cccnc21 | 4390 nM

SMILES | IC50
CN(Cc1nccc2c3ccccc3n(CCCCN)c12)[C@H]1CCCc2cccnc21 | 3370 nM
CC(C)CN(Cc1nccc2c3ccccc3n(CCCN3C(=O)c4ccccc4C3=O)c12)[C@H]1CCCc2cccnc21 | 6650 nM
c1cnc2c(c1)CCCC2N(CCCCN1CCNCC1)Cc1nccc2c1[nH]c1ccccc12 (centres unmarked) | 1960 nM
CN1CCN(CCCN(Cc2nccc3c2[nH]c2ccccc23)[C@H]2CCCc3cccnc32)CC1 | 206 nM
O=C1CN(CCCN(Cc2nccc3c4ccccc4n(CCCN4C(=O)c5ccccc5C4=O)c23)[C@H]2CCCc3cccnc32)CCN1 | 138 nM
NCCCCN(Cc1nccc2c3ccccc3n(CCN3CCNCC3)c12)[C@H]1CCCc2cccnc21 [drawing 754] | 63 nM
NCCCCN(Cc1nccc2c3ccccc3n(CCCN3CCNCC3)c12)[C@H]1CCCc2cccnc21 [drawing 723] | 15 nM
NCCCCN(Cc1nccc2c1[nH]c1ccccc12)[C@@H]1CCCc2cccnc21 | 1340 nM
NC(=O)NCCCCN(Cc1nccc2c1[nH]c1ccccc12)[C@H]1CCCc2cccnc21 | 6670 nM
NCCCCN(Cc1cc2c(cn1)[nH]c1ccccc12)[C@@H]1CCCc2cccnc21 | 1180 nM
NCCCCN(Cc1nccc2c3ccccc3n(CCCN)c12)[C@H]1CCCc2cccnc21 [drawing 748] | 21 nM
c1ccc(CNCCCCN(Cc2nccc3c2[nH]c2ccccc23)C2CCCc3cccnc32)nc1 (centres unmarked) | 5100 nM
O=C(Cn1c2ccccc2c2ccnc(CN(CCCN3CCNCC3)[C@H]3CCCc4cccnc43)c21)N1CCOCC1 | 44 nM
NCCCCN(Cc1nccc2c3ccccc3n(CC(=O)N3CCC(O)CC3)c12)[C@H]1CCCc2cccnc21 | 212 nM
c1ccc(Cn2c3ccccc3c3ccnc(CN(CCCN4CCNCC4)[C@H]4CCCc5cccnc54)c32)cc1 | 152 nM

Source: patent US9314468B2, “Chemokine receptor modulators” (Altiris Therapeutics, Inc., priority 2008, dated 2016)
